In brackets after ≈: the same amount, converted by molar mass. Like-named read-outs stand apart in the source and are kept apart here. Positions of bridges follow the written chain, without caps; N, C: chain ends. Non-standard residues stand in square brackets, D forms with d. Residues, ends and D or L forms follow the SMILES beside them. *: point of attachment. Octanoyl = CCCCCCCC(=O)*; Orn = NCCC[C@H](N)C(=O)O; Dab = NCC[C@H](N)C(=O)O; Hexanoyl = CCCCCC(=O)*
Experiments:
Klebsiella pneumoniae = tested on: Klebsiella pneumoniae
Method in brief: (§1)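 Lipopeptide TFA salts are serially diluted in cation-adjusted Mueller-Hinton broth and inoculated per the CLSI M100-S18 broth microdilution method. The MIC is then recorded, with polymyxin B sulphate included as a control.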

Pseudomonas aeruginosa = tested on: Pseudomonas aeruginosa
Method in brief: as §1

Enterobacter cloacae = tested on: Enterobacter cloacae
Method in brief: as §1

Acinetobacter baumannii = tested on: Acinetobacter baumannii
Method in brief: as §1

P. aeruginosa ATCC 27853 = assay: In vivo efficacy in mouse blood infection model (neutropenic Swiss mice); details: compound, free base 4 mg/kg intravenously 2 h after inoculation, blood at 4 h
Procedure: P. aeruginosa ATCC 27853, A. baumannii ATCC 19606 and K. pneumoniae FADDI-KP032 were subcultured on nutrient agar plates. One colony of each bacterial strain was dispersed in 10-mL CAMHB and incubated overnight. On day 2, an aliquot (0.2 mL) of each overnight culture suspension was dispersed in 20-mL CAMHB and incubated for 1.5-2.5 h for production of early log-phase growth bacterial culture. The bacteria in the early log-phase growth suspension were concentrated by centrifugation (3,220 g for 10 min) and re-suspended in sterile 0.9% saline for inoculation into mice. The bacterial cell concentration (colony forming unit [CFU]/mL) in saline was estimated by determining the optical density (OD) of the suspension at 600 nm, and confirmed by plating the suspension on nutrient agar plates. Swiss mice (22 to 28 g) were rendered neutropenic by injecting two doses of cyclophosphamide intraperitoneally, −4 day (150 mg/kg) and −1 day (100 mg/kg) prior to inoculation. Bloodstream infection was established by injecting intravenously 50 μL of early log-phase bacterial suspension (10^8-10^9 CFU/mL). The exact injection volume for each bacterial suspension was calculated based upon the OD value of the bacterial suspension and the desired inoculum for each isolate.
Solutions for administration of colistin, polymyxin B or the compounds were prepared at a concentration of 1 mg (free base) per mL in sterile 0.9% saline. At 2 h after inoculation, a mouse in the treatment groups was injected intravenously with one of the above solutions at 4 μL/g body weight (BW) (i.e. free base 4 mg/kg BW), while the same volume of saline was injected into the control mice. At 0 h or at 4 h after the administration of antibacterial drug or saline (control), animals were euthanised by inhalation of overdose isoflurane. The skin on the chest and fore-paws of each animal was thoroughly cleansed with 70% ethanol and Betadine®. The blood was collected via cardiac puncture using a 1-mL syringe rinsed with heparin (5,000 IU/mL), diluted serially in sterile 0.9% saline and plated on nutrient agar plates using a spiral plater.
The agar plates were incubated at 37° C. overnight. The bacterial colonies on the plate were counted and CFU/mL of the blood was calculated. The log10 CFU/mL of blood in each mouse was calculated. The in vivo activity of the compounds against the bacteria was calculated as the difference of the log10 CFU/mL values between the treated mice and the control mice at 4 h (Δ log=log10 (treated)CFU/mL−log10 (control)CFU/mL).
Any compound showing a decrease in bacterial loading (Δ log) of ≥2 at 4 h is considered to have good in vivo efficacy in this initial screening model.

Molecule | MIC (Klebsiella pneumoniae) [µg/mL] | MIC (Pseudomonas aeruginosa) [µg/mL] | Minimum inhibitory concentration, Pa ATCC 27853 (Pseudomonas aeruginosa) [µg/mL] | Minimum inhibitory concentration, Pa FADDI-PA022 (Pseudomonas aeruginosa) [µg/mL] | Minimum inhibitory concentration, Pa FADDI-PA025 (Pseudomonas aeruginosa) [µg/mL] | Minimum inhibitory concentration, Ec FADDI-EC001 (Enterobacter cloacae) [µg/mL] | Minimum inhibitory concentration, Ec FADDI-EC003 (Enterobacter cloacae) [µg/mL] | Minimum inhibitory concentration, Ec FADDI-EC006 (Enterobacter cloacae) [µg/mL] | MIC (Acinetobacter baumannii) [µg/mL] | Minimum inhibitory concentration, Ab A ATCC 17978 (Acinetobacter baumannii) [µg/mL] | Minimum inhibitory concentration, Ab ATCC 19606 (Acinetobacter baumannii) [µg/mL] | Minimum inhibitory concentration, Ab FADDI-AB034 (Acinetobacter baumannii) [µg/mL] | further results
CCCCCCCC(=O)N[C@@H](CCN)C(=O)N[C@H](C(=O)N[C@H](CO)C(=O)N[C@H]1CCNC(=O)[C@H]([C@@H](C)O)NC(=O)[C@H](CCN)NC(=O)[C@H](CCN)NC(=O)[C@H](C)NC(=O)[C@@H](CC(C)C)NC(=O)[C@H](CCN)NC1=O)[C@@H](C)O [Compound 2] (Octanoyl-[Dab]T[dS][Dab][Dab][dL]A[Dab][Dab]T; lactam 4-C) | 0.5 (≈ 0.454 µM) | 8 (≈ 7.27 µM) | 8 (≈ 7.27 µM) | 8 (≈ 7.27 µM) | >32 | <0.125 | <0.125 | 0.5 (≈ 0.454 µM) | 0.5 (≈ 0.454 µM) | 0.5 (≈ 0.454 µM) | 0.5 (≈ 0.454 µM) | 0.5 (≈ 0.454 µM) | 
CCCCCCCC(=O)N[C@@H](CCN)C(=O)N[C@H](C(=O)N[C@H](CO)C(=O)N[C@H]1CCNC(=O)[C@H]([C@@H](C)O)NC(=O)[C@H](CCN)NC(=O)[C@H](CCN)NC(=O)[C@H]([C@@H](C)O)NC(=O)[C@@H](Cc2ccccc2)NC(=O)[C@H](CCN)NC1=O)[C@@H](C)O [Compound 3] (Octanoyl-[Dab]T[dS][Dab][Dab][dF]T[Dab][Dab]T; lactam 4-C) | <0.125 | 4 (≈ 3.44 µM) | 4 (≈ 3.44 µM) | 4 (≈ 3.44 µM) | >32 | 0.5 (≈ 0.429 µM) | <0.125 | 0.25 (≈ 0.215 µM) | 0.25 (≈ 0.215 µM) | <0.125 | 0.25 (≈ 0.215 µM) | <0.125 | 
CCCCCCCC(=O)N[C@@H](CCN)C(=O)N[C@H](C(=O)N[C@H](CO)C(=O)N[C@H]1CCNC(=O)[C@H]([C@@H](C)O)NC(=O)[C@H](CCN)NC(=O)[C@H](CCN)NC(=O)[C@H](C(C)C)NC(=O)[C@@H](CC(C)C)NC(=O)[C@H](CCN)NC1=O)[C@@H](C)O [Compound 5] (Octanoyl-[Dab]T[dS][Dab][Dab][dL]V[Dab][Dab]T; lactam 4-C) | <0.125 | 2 (≈ 1.77 µM) | 2 (≈ 1.77 µM) | 4 (≈ 3.54 µM) | 16 (≈ 14.2 µM) | 0.25 (≈ 0.222 µM) | <0.125 | 0.25 (≈ 0.222 µM) | <0.125 | <0.125 | <0.125 | 0.25 (≈ 0.222 µM) | 
CCCCCCCC(=O)N[C@@H](CCN)C(=O)N[C@H](C(=O)N[C@H](CO)C(=O)N[C@H]1CCNC(=O)[C@H]([C@@H](C)O)NC(=O)[C@H](CCN)NC(=O)[C@H](CCN)NC(=O)[C@H](CO)NC(=O)[C@@H](CC(C)C)NC(=O)[C@H](CCN)NC1=O)[C@@H](C)O [Compound 6] (Octanoyl-[Dab]T[dS][Dab][Dab][dL]S[Dab][Dab]T; lactam 4-C) | 0.5 (≈ 0.448 µM) | >32 | >32 | 4 (≈ 3.58 µM) | >32 | 0.25 (≈ 0.224 µM) | 0.25 (≈ 0.224 µM) | 0.25 (≈ 0.224 µM) | 1 (≈ 0.896 µM) | 1 (≈ 0.896 µM) | 1 (≈ 0.896 µM) | 0.5 (≈ 0.448 µM) | 
CCCCCC(=O)N[C@@H](CCN)C(=O)N[C@H](C(=O)N[C@H](CO)C(=O)N[C@H]1CCNC(=O)[C@H]([C@@H](C)O)NC(=O)[C@H](CCN)NC(=O)[C@H](CCN)NC(=O)[C@H]([C@@H](C)O)NC(=O)[C@@H](CC(C)C)NC(=O)[C@H](CCN)NC1=O)[C@@H](C)O [Compound 8] (Hexanoyl-[Dab]T[dS][Dab][Dab][dL]T[Dab][Dab]T; lactam 4-C) | 1 (≈ 0.907 µM) | 4 (≈ 3.63 µM) | 4 (≈ 3.63 µM) | 8 (≈ 7.26 µM) | >32 | 0.25 (≈ 0.227 µM) | 0.5 (≈ 0.454 µM) | 0.25 (≈ 0.227 µM) | 2 (≈ 1.81 µM) | 2 (≈ 1.81 µM) | 2 (≈ 1.81 µM) | 1 (≈ 0.907 µM) | Δ log (Treated-Control at 4 h) (P. aeruginosa ATCC 27853): −0.05 log10 CFU/mL
CCCCCCCC(=O)N[C@@H](CCN)C(=O)N[C@H](C(=O)N[C@@H](CCN)C(=O)N[C@H]1CCCNC(=O)[C@H]([C@@H](C)O)NC(=O)[C@H](CCN)NC(=O)[C@H](CCN)NC(=O)[C@H]([C@@H](C)O)NC(=O)[C@@H](CC(C)C)NC(=O)[C@H](CCN)NC1=O)[C@@H](C)O [Compound 149] (Octanoyl-[Dab]T[Dab][Orn][Dab][dL]T[Dab][Dab]T; lactam 4-C) |  |  |  |  |  |  |  |  |  |  |  |  | Minimum inhibitory concentration (MIC), Pa ATCC 27853 (Pseudomonas aeruginosa): >32 µg/mL; Minimum inhibitory concentration (MIC), Pa FADDI-PA022 (Pseudomonas aeruginosa): >32 µg/mL; Minimum inhibitory concentration (MIC), Pa FADDI-PA025 (Pseudomonas aeruginosa): >32 µg/mL; Minimum inhibitory concentration (MIC), Ec FADDI-EC001 (Enterobacter cloacae): >32 µg/mL; Minimum inhibitory concentration (MIC), Ec FADDI-EC003 (Enterobacter cloacae): >32 µg/mL; Minimum inhibitory concentration (MIC), Ec FADDI-EC006 (Enterobacter cloacae): >32 µg/mL; Minimum inhibitory concentration (MIC), Ab ATCC 17978 (Acinetobacter baumannii): >32 µg/mL; Minimum inhibitory concentration (MIC), Ab ATCC 19606 (Acinetobacter baumannii): >32 µg/mL; Minimum inhibitory concentration (MIC), Ab FADDI-AB034 (Acinetobacter baumannii): >32 µg/mL
colistin [reference compound] |  |  |  |  |  |  |  |  |  |  |  |  | Minimum inhibitory concentration, Pa ATCC 27853 (Pseudomonas aeruginosa; Pseudomonas aeruginosa ATCC 27853, broth microdilution in CAMHB): 1 µg/mL; Minimum inhibitory concentration, Pa FADDI-PA022 (Pseudomonas aeruginosa; Pseudomonas aeruginosa FADDI-PA022, broth microdilution in CAMHB): 1 µg/mL; Minimum inhibitory concentration, Pa FADDI-PA025 (Pseudomonas aeruginosa; Pseudomonas aeruginosa FADDI-PA025, broth microdilution in CAMHB): 2 µg/mL; Minimum inhibitory concentration, Ec FADDI-EC001 (Enterobacter cloacae; Enterobacter cloacae FADDI-EC001, broth microdilution in CAMHB): 0.25 µg/mL; Minimum inhibitory concentration, Ec FADDI-EC003 (Enterobacter cloacae; Enterobacter cloacae FADDI-EC003, broth microdilution in CAMHB): <0.125 µg/mL; Minimum inhibitory concentration, Ec FADDI-EC006 (Enterobacter cloacae; Enterobacter cloacae FADDI-EC006, broth microdilution in CAMHB): <0.125 µg/mL; Minimum inhibitory concentration, Ab A ATCC 17978 (Acinetobacter baumannii; Acinetobacter baumannii ATCC 17978, broth microdilution in CAMHB): 0.5 µg/mL; Minimum inhibitory concentration, Ab ATCC 19606 (Acinetobacter baumannii; Acinetobacter baumannii ATCC 19606, broth microdilution in CAMHB): 1 µg/mL; Minimum inhibitory concentration, Ab FADDI-AB034 (Acinetobacter baumannii; Acinetobacter baumannii FADDI-AB034, broth microdilution in CAMHB): 0.5 µg/mL
